{
  "source": "patent US12012415B2",
  "about": "“Compositions and methods for the diagnosis, treatment and prevention of neoplastic and neurological disorders” (AscentGene, Inc., priority 2018, dated 2024)",
  "key": {"[1]": {"test_system": "human non-small cell lung cancer cell line H841", "assay": "Cell growth of NSCLC cell lines", "assay_type": "cell-based", "conditions": "cell growth rate from number of live cells", "procedure": "Rat glioblastoma cell lines C6 (A) and human non-small cell lung cancer cell line H841 (B) were grown in the proper medium and treated with different concentration of drug candidate AG-1031 (P) and AG-1503 (#3). Cell growth rate was calculated based on the number of live cells as compared to concentration in M of selected small molecules of the invention (see FIGS. 6A and 6B)."}, "SIRT1 and p-CREB": {"test_system": "SIRT1 and p-CREB", "assay": "Western blot of SIRT1, CREB and p-CREB in hippocampus, Aβ1-42 AD rat model", "assay_type": "in vivo, rats", "conditions": "vs Aβ1-42 group", "procedure": "(§1) Aβ1-42 (Sigma-Aldrich, St. Louis, MO, USA;) was dissolved in double-distilled water at the concentration of 5 μg/μl, and incubated at 37° C. for one week before surgery. The rats were randomly divided into four groups as Sham (n=8), Sham+AG-1601 (n=8), Aβ1-42 (n=8) and Aβ1-42+AG-1601 (n=8). The Alzheimer's disease rat models were established by intracerebroventricular (i.c.v.) injection of Aβ1-42 aggregates. The animals were anesthetized with intraperitoneal injection of pentobarbital sodium (50 mg/kg) and placed in a stereotaxic apparatus (Narishige, Japan). The head skin of the rat was opened and two small holes were drilled on both sides of skull following the coordinates: 0.8 mm posterior to bregma, +1.4 mm lateral to sagittal suture, 4.0 mm beneath the surface of brain. Aβ1-42 (2.0 μl per side) was injected bilaterally into the lateral ventricles through micro-syringe. The needle was taken out after 5 minutes of the injection to ensure the aggregates were infused completely. Rats in the Sham group underwent the same operational process, but same volumes of double-distilled water were injected instead of Aβ1-42. After surgery, all rats were injected with penicillin (100,000 U) in the hindquarter muscle to prevent infection. The animals of Sham+AG-1601 and Aβ1-42+AG-1601 groups were intravenous injection with AG-1601 (1 mg/kg), while the same volume vehicle was implemented for the other groups every day for 14 days after one week of the postoperative recovery.\nThree rats of each group were randomly selected to be sacrificed and their hippocampal tissues were immediately removed at 0° C. and stored at minus 80° C. For subcellular fractionation, 100- to 200-mg weight rat hippocampal tissue was used. The procedure has been described (Yang et al., 2017). The tissues were homogenized for 30 s in 500 μl TEVP buffer containing 320 mM sucrose and the homogenate was obtained. The homogenate (H) was centrifuged at 900×g for 10 min at 4° C., and the supernatant (S1) was centrifuged for 20 min at 10000×g at 4° C. to obtain the cytosolic/light membrane fraction (S2) and the crude synaptosomal fraction pellet (P2). The pellet was resuspended in TEVP buffer containing 35.6 mM sucrose solution and then centrifuged at 25,000×g for 20 min at 4° C. The supernatant was stored at minus 80° C. and referred as the synaptic vesicular fraction (LS1). The pellet, synaptic plasma membranes (LP1), was resuspended in TEVP buffer containing 1% Triton X-100 and centrifuged at 330,000×g for 30 min at 4° C. The supernatant referred as Triton X-100-soluble fraction (TSF) was stored at minus 80° C. The final pellet, the Triton X-100-insoluble fraction (TIF), was homogenized in TEVP buffer containing 1% SDS.\nThe total homogenate (H) and synaptosomal fractions were analyzed. Equal amounts of 20 μg from each sample were separated via 10% or 13% SDS-PAGE gels and subsequently transferred onto PVDF membranes (Millipore, USA). […] After washing with TBST buffer, signals were visualized with the HRP substrate (Millipore, USA) and detected with a chemiluminescence kit (Tanon 5500, Tanon Science & Technology, China). The gray-scale value of protein band was quantified by NIH Image J program."}, "[2]": {"test_system": "Aβ1-42-induced cognitive impairments", "assay": "Open field test in Aβ1-42 Alzheimer's disease rat model", "assay_type": "in vivo, rats", "conditions": "for number of entries into the center zone: 1 mg/kg i.v. daily 14 days, vs Aβ1-42 group; for total distance / traveling speed: open field, between the four groups", "procedure": "as §1\nThe open field test was carried out to evaluate locomotor activity and exploratory behavior. This test was conducted as described previously with little modifications (Sugita et al., 2015). The open field test consists of a circular apparatus (80 cm in diameter, 30 cm high). The circular apparatus was divided into the center zone (30 cm in diameter in the middle of the arena) and the concentric outer circle zone. Rats were placed individually in the outer circle of the apparatus and allowed to explore freely for 5 min. The path of each rat was tracked by a camera-driven tracker system (Ethovision2.0, Noldus, Wagenigen, Netherlands). The number of entries into the center zone, the total distance and the traveling speed during the testing were analyzed."}, "[3]": {"test_system": "dendritic spines of the CA1 pyramidal cells", "assay": "Golgi-Cox staining of dendritic spines, Aβ1-42 AD rat model", "assay_type": "in vivo, rats", "conditions": "vs Aβ1-42 group", "procedure": "as §1, with “Rats in the Sham group underwent the same operational process, but same volumes of double-distilled water were injected instead of Aβ1-42. After surgery, all rats were injected with penicillin (100,000 U) in the hindquarter muscle to prevent infection. The animals of Sham+AG-1601 and Aβ1-42+AG-1601 groups were intravenous injection with AG-1601 (1 mg/kg), while the same volume vehicle was implemented for the other groups every day for 14 days after one week of the postoperative recovery.” left out\nGolgi-Cox staining method that performed according to the previously described protocol was used to determine the density of apical dendritic spines of the CA1 pyramidal cells in this study (Zhang et al., 2016). […] Six neurons in the CA1 region of hippocampus per animal were analyzed. The average dendritic spine density per 10 μm of dendritic length was calculated for each animal."}},
  "data": [
    {"smiles": "C=CC1=C(C)c2cc3[nH]c(cc4nc(cc5[nH]c(cc1n2)c(C)c5C=C)C(C)=C4CCC(=O)O)c(CCC(=O)NCCCc1ccccc1)c3C", "note": "[AG-1601, 3-(2,8,13,18-tetramethyl-3-(3-oxo-3-((3-phenylpropyl)amino)propyl)-12,17-divinylporphyrin-7-yl)propanoic acid]", "values": [
      {"measurement": "inhibition of growth of NSCLC cell lines", "setting": "[1]", "result": "inhibiting growth of some NSCLC cell lines"},
      {"measurement": "SIRT1 protein level", "setting": "SIRT1 and p-CREB", "result": "the decline was prevented"},
      {"measurement": "expression of CREB", "setting": "SIRT1 and p-CREB", "result": "rescued the reductions"},
      {"measurement": "p-CREB level", "setting": "SIRT1 and p-CREB", "result": "significantly increased"},
      {"measurement": "SIRT1 protein level", "setting": "SIRT1 and p-CREB; listed as AG-1061", "result": "this decline was prevented"},
      {"measurement": "p-CREB level", "setting": "SIRT1 and p-CREB; listed as AG-1061", "result": "significantly increased the expression of p-CREB protein"},
      {"measurement": "number of entries into the center zone", "setting": "[2]", "result": "increased dramatically"},
      {"measurement": "number of entries into the center zone", "setting": "[2]; listed as AG-1061", "result": "increased significantly"},
      {"measurement": "total distance", "setting": "[2]", "result": "no significant effect"},
      {"measurement": "traveling speed", "setting": "[2]", "result": "no significant effect"},
      {"measurement": "total distance", "setting": "[2]; listed as AG-1061", "result": "no significant difference"},
      {"measurement": "traveling speed", "setting": "[2]; listed as AG-1061", "result": "no significant difference"},
      {"measurement": "density of dendritic spines in the CA1 region", "setting": "[3]", "result": "marked reversal of the dendritic spine loss"}
    ]}
  ]
}
